According to PubChem BioAssay (NCI):
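Five concentrations, 48 hours, 96-well plates. GI50 is the concentration that inhibits growth by half. TGI is the concentration that stops growth completely.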

Assays:
Experiment in all cases: NCI anticancer screen, dose series, 48 h
HOP-62 NSCLC = tested on: HOP-62 NSCLC
SW-620 colon = tested on: SW-620 colon
HOP-92 NSCLC = tested on: HOP-92 NSCLC
RXF 393 renal = tested on: RXF 393 renal
SF-268 CNS = tested on: SF-268 CNS
OVCAR-5 ovarian = tested on: OVCAR-5 ovarian
HCC-2998 colon = tested on: HCC-2998 colon
U251 CNS = tested on: U251 CNS
NCI-H522 lung = tested on: NCI-H522 lung
NCI/ADR-RES ovarian = tested on: NCI/ADR-RES ovarian

SMILES	TGI (HOP-62 NSCLC) [µM]	TGI (SW-620 colon) [µM]	TGI (HOP-92 NSCLC) [µM]	TGI (RXF 393 renal) [µM]	TGI (SF-268 CNS) [µM]	TGI (OVCAR-5 ovarian) [µM]	TGI (HCC-2998 colon) [µM]	TGI (U251 CNS) [µM]	TGI (NCI-H522 lung) [µM]	GI50 (HOP-62 NSCLC) [µM]	GI50 (SW-620 colon) [µM]	GI50 (HOP-92 NSCLC) [µM]	GI50 (RXF 393 renal) [µM]	GI50 (SF-268 CNS) [µM]	GI50 (OVCAR-5 ovarian) [µM]	GI50 (HCC-2998 colon) [µM]	GI50 (U251 CNS) [µM]	TGI (NCI/ADR-RES ovarian) [µM]	GI50 (NCI/ADR-RES ovarian) [µM]
COc1cc(C(=O)C/C(CCC(=O)Nc2ccc(Cl)cc2Cl)=N/NC(=O)C(=O)NN)ccc1O	> 100	> 100	> 100	> 100	> 100	> 100	> 100	> 100	> 100										
O=S1(=O)OCCOS(=O)(=O)C1Cl	> 100	> 100	> 100		> 100		> 100		> 100										
CC(=O)OCCOCNC(=S)N/N=C/c1ccc(Br)s1	> 100	> 100	> 100	> 100	> 100	> 100	> 100	> 100	> 100										
C/C(CCn1[nH]c(=O)ccc1=O)=N\OCCCc1ccccc1	> 100	> 100	> 100	> 100	> 100	> 100	> 100												
c1ccc(CSc2nc3ccccc3nc2-c2cccs2)cc1	> 100		> 100		> 100	> 100	> 100	> 100	> 100										
CCOc1ccccc1NC(=O)C(=O)Cc1nc2ccccc2s1	> 100	> 100	> 100	> 100	> 100		> 100	> 100	> 100										
[F][Sn]([F])([c]1ccccc1)[c]1ccccc1	4.85	3.02	3.13	2.64	3.78	3.69	3.04	3.05		2.32	1.36	1.48	0.887	1.84	1.51	1.63	1.63		
CC1=CC(=O)C(C(O)(C(F)(F)F)C(F)(F)F)C(C)(C)C1 (stereo unspecified)	> 10	> 10		> 10	> 10		> 10	> 10	> 10									> 10	
O=C(O)CSc1n[nH]c(Cc2ccccc2)n1	> 100	> 100	> 100	> 100	> 100	> 100	> 100	> 100	> 100										
CC1CN1c1c(C(=O)/C=C/c2ccc(Cl)cc2)c(-c2ccccc2)nn(C)c1=O (stereo unspecified)	7.66	6.81	> 10	8.4	> 10	> 10	4.2	5.36	5.99										
CN(C)CCSc1nccc(-c2cc3ccccc3s2)n1	52.7	36.7	33.5	56		82.4	29.3	57.1	36.7										
Clc1ccc(N=CNc2ccc(-c3nc4ccccc4o3)cc2)cc1	> 100	8.16	> 100	80.6	39	99.6		91.3		> 100	2.9	57.1	25.8	12.7	33.3		23.4	48.1	7.03
Nc1ccc2[nH]cc(CCC(=O)O)c2c1	> 100	> 100		> 100	> 100	> 100		> 100	> 100									> 100	
O=c1c2ccccc2nc(-c2ccccc2)n1NC(=S)Nc1ccccc1	> 100	> 100	> 100	> 100	> 100	> 100		> 100	> 100										
CC(C(=O)n1c2ccccc2c2ccccc21)N(c1ccccc1)c1ccccc1 (stereo unspecified)	32	36		28.4	36.2	33.6	30.1	34.7	6.48										
CC1=C(c2cc(C(=O)Nc3ccc(Cl)cc3)nc(=S)[nH]2)Sc2ccccc2N1	> 100	> 100	> 100	> 100	> 100	> 100	> 100	> 100	> 100										
O=C(O)CN(c1ccccc1)S(=O)(=O)c1ccc([N+](=O)[O-])cc1		> 100	> 100	> 100		> 100		> 100	> 100										
